Here are results for 4 compounds from patent publication US11512049B2, “Pleuromutilin 2-[(diphenylmethyl)thio] acetic acid ester with anti-drug resistant bacteria activity and a method of preparing the same” (SHAANXI UNIVERSITY OF SCIENCE AND TECHNOLOGY, priority 2021, dated 2022).

Holding throughout (format): cell-based
Holding throughout (conditions): for Zone of inhibition: 30 μg/tablet paper, 37° C., 24 h, ≥17 mm sensitive, 15-16 mm intermediary, ≤14 mm drug resistance; for Inhibitory effect (in words): summary of FIGS. 1-3 and Table 1

The test system of assay [1] is MRSA 18-575 (multi-resistant Staphylococcus aureus 575). The assay can be described thus: Paper diffusion method drug sensitivity test, MRSA 18-575. The procedure:
(§1) The antimicrobial efficacy was determined by a paper diffusion method drug sensitivity test.
(§2) Experimental strains: multi-resistant Staphylococcus aureus 171, multi-resistant Staphylococcus aureus 575, multi-resistant Staphylococcus aureus 596. The experimental strains were provided by Huashan Hospital Affiliated to Fudan University (Institute of Antibiotic of Fudan University).
(§3) Drug sensitive paper: The drug sensitive paper is a special drug sensitive paper with a diameter of 6.35 mm and a water absorption of 0.02 mL. The control drug was vancomycin (30 μg/tablet); the test drug was pleuromutilin 2-[(diphenylmethyl)thio]acetic acid ester (30 μg/tablet).
(§4) The experimental strains were inoculated in non-selective medium and placed in air at 37° C. for 24 h. Pick a single colony that grows well and inoculate it into broth medium, incubate at 35° C.±2° C. for 6 hours, and use LA broth medium to calibrate the concentration of the bacterial solution to 0.5 Mie turbidimetric tube ([…]). A bacterial suspension is obtained.
(§5) LB dry powder was weighed, sterilized at 103.4 Kpa, 121.3° C. high-pressure steam for 15 min, and then placed it in a 40° C.-50° C. water bath. A sterile empty plate (inner diameter 9 cm) was placed on the surface of the ultra-clean table water table, and […] to the plate. The thickness of each plate was 3 mm to 4 mm. After the plate was cooled at room temperature, it was stored in the refrigerator at 2° C.-8° C. A sterile cotton swab was used to dip the bacterial solution and to evenly coat the surface of the LB plate 3 times. After inoculation of the bacterial suspension, the LB plate was dried at room temperature for 3 min to 5 min. Sterile forceps were used to closely attach the antibacterial drug paper to the dish. The dish was put upside down and placed in a 37° C. incubator for 24 h. The results were observed by measuring the diameter. Taking 0.5% DMSO solution as a negative control, the antibacterial activity is expressed by the diameter of the inhibition zone. The inhibition zone ≥17 mm, sensitive; the inhibition zone of 15 mm-16 mm, intermediary; the inhibition zone ≤14 mm, drug resistance.

The subject of assay [2] is MRSA 18-171 (multi-resistant Staphylococcus aureus 171). Kind of assay: Paper diffusion method drug sensitivity test, MRSA 18-171. On the procedure:
as §1, §2, §3, §4, §5

Assay [3] has as its system MRSA 18-596 (multi-resistant Staphylococcus aureus 596). The assay can be described thus: Paper diffusion method drug sensitivity test, MRSA 18-596. The procedure:
as §1, §2, §3, §4, §5

Consider `C=C[C@]1(C)C[C@@H](OC(=O)COC(=O)CSC(c2ccccc2)c2ccccc2)[C@]2(C)[C@H](C)CC[C@]3(CCC(=O)[C@H]32)[C@@H](C)[C@@H]1O`, for which the figures for the Zone of inhibition in assay [1], in assay [2] and in assay [3] were 23 mm, 21 mm and 25 mm, respectively. The “Inhibitory effect (in words)” value in assay [1], in assay [2] and in assay [3] was “strong inhibitory effects” throughout.
As for `CN[C@H](CC(C)C)C(=O)N[C@H]1C(=O)N[C@@H](CC(N)=O)C(=O)N[C@H]2C(=O)N[C@H]3C(=O)N[C@H](C(=O)N[C@H](C(=O)O)c4cc(O)cc(O)c4-c4cc3ccc4O)[C@H](O)c3ccc(c(Cl)c3)Oc3cc2cc(c3O[C@@H]2O[C@H](CO)[C@@H](O)[C@H](O)[C@H]2O[C@H]2C[C@](C)(N)[C@H](O)[C@H](C)O2)Oc2ccc(cc2Cl)[C@H]1O` [Vancomycin, vancomycin], the Zone of inhibition turned out to be 18 mm in assay [1], 17 mm in assay [2] and 21 mm in assay [3].
Consider `C=C[C@]1(C)C[C@@H](OC(=O)CO)[C@]2(C)[C@H](C)CC[C@]3(CCC(=O)[C@H]32)[C@@H](C)[C@@H]1O` [Pleuromutilin], for which the Zone of inhibition in assay [1], in assay [2] and in assay [3] was 0 mm each time. Moreover, the “Inhibitory effect (in words)” value in assay [1], in assay [2] and in assay [3] was “no inhibitory effect” in each case.
On to `O=C(O)CSC(c1ccccc1)c1ccccc1` [2-[(Diphenylmethyl)thio]acetic acid], for which the Zone of inhibition in assay [1], in assay [2] and in assay [3] was 0 mm each time. In addition, the “Inhibitory effect (in words)” value in assay [1], in assay [2] and in assay [3] was “no inhibitory effect” each time.
